# Results: patent publication US20220177508A1, “C10-Cyclic Substituted 13-Membered Macrolides and Uses Thereof” (Zikani Therapeutics, Inc., priority 2018, published 2022)
# Where two headings read alike, the source gives them in different places.
# Key:
# [1] = ester bond, chlorobenzene
# K. pneumoniae MP-546 = assay: Broth dilution MIC determination (CLSI), K. pneumoniae MP-546; type: cell-based; settings: Klebsiella pneumoniae, MP546; strain MP-546, broth dilution
# K. pneumoniae MP-648 = assay: Broth dilution MIC determination (CLSI), K. pneumoniae MP-648; type: cell-based; settings: Klebsiella pneumoniae, MP648; strain MP-648, broth dilution
# P. aeruginosa MP-3 = assay: Broth dilution MIC determination (CLSI), P. aeruginosa MP-3; type: cell-based; settings: Pseudomonas aeruginosa, MP3; strain MP-3, broth dilution
# A. baumannii MP-15 = assay: Broth dilution MIC determination (CLSI), A. baumannii MP-15; type: cell-based; settings: Acinetobacter baumannii, MP15; strain MP-15, broth dilution; read-out: MIC A. baumanii MP-15
# E. coli MP-4 = assay: Broth dilution MIC determination (CLSI), E. coli MP-4; type: cell-based; settings: Escherichia coli, MP4; strain MP-4, broth dilution; read-out: MIC E. coli MP-4
# S. aureus MP-12 = assay: Broth dilution MIC determination (CLSI), S. aureus MP-12; type: cell-based; settings: Staphylococcus aureus, MP12; strain MP-12, broth dilution
Structure (SMILES),MIC (K. pneumoniae MP-546),MIC (K. pneumoniae MP-648),MIC (P. aeruginosa MP-3),MIC (A. baumannii MP-15),MIC (E. coli MP-4),MIC (S. aureus MP-12),"ring closure, yield of all isomers ([1]; from CO[C@](C)(C[C@@H](C)CN(C)[C@@H](CO)c1ccc(Br)cc1)[C@H](O[C@@H]1O[C@H](C)C[C@H](N(C)C)[C@H]1OC(=O)c1ccccc1)[C@@H](C)C1=C(C)C(=O)OC(C)(C)O1, 4.0 mM, 165.0 °C, 20.0 h)","ring closure, yield of all isomers ([1]; from CO[C@](C)(C[C@@H](C)CN(C(=O)OCc1ccccc1)[C@@H](CO)C1CCN(C(=O)OC(C)(C)C)CC1)[C@H](O[C@@H]1O[C@H](C)C[C@H](N(C)C)[C@H]1OC(=O)c1ccccc1)[C@@H](C)C1=C(C)C(=O)OC(C)(C)O1, 3.15 mM, 148.0 °C, 23.0 h)"
CO[C@]1(C)C[C@@H](C)CN(C)[C@H](c2ccc(Br)cc2)COC(=O)C(C)C(=O)[C@H](C)[C@H]1O[C@@H]1O[C@H](C)C[C@H](N(C)C)[C@H]1OC(=O)c1ccccc1 (some centres unmarked),–,–,–,–,–,–,99%,–
CO[C@]1(C)C[C@@H](C)CN(C(=O)OCc2ccccc2)[C@H](C2CCN(C(=O)OC(C)(C)C)CC2)COC(=O)[C@H](C)C(=O)[C@H](C)[C@H]1O[C@@H]1O[C@H](C)C[C@H](N(C)C)[C@H]1OC(=O)c1ccccc1,–,–,–,–,–,–,–,29%
"CO[C@]1(C)C[C@@H](C)CN(C)[C@H](C2CN(Cc3cccnc3)C2)COC(=O)C(C)(C)C(=O)[C@H](C)[C@H]1O[C@@H]1O[C@H](C)C[C@H](N(C)C)[C@H]1O [Compound 119, (3R,6R,8R,9R,10R)-9-(((2S,3R,4S,6R)-4-(dimethylamino)-3-hydroxy-6-methyltetrahydro-2H-pyran-2-yl)oxy)-8-methoxy-4,6,8,10,12,12-hexamethyl-3-(1-(pyridin-3-ylmethyl)azetidin-3-yl)-1-oxa-4-azacyclotridecane-11,13-dione]",4 to 32 µg/mL,4 to 32 µg/mL,> 32 µg/mL,> 32 µg/mL,< 4 µg/mL,4 to 32 µg/mL,–,–
"CO[C@]1(C)C[C@@H](C)CN(C)[C@H](C2CN(C(=O)[C@H]3CCNC3)C2)COC(=O)C(C)(C)C(=O)[C@H](C)[C@H]1O[C@@H]1O[C@H](C)C[C@H](N(C)C)[C@H]1O [Compound 181, (3R,6R,8R,9R,10R)-9-(((2S,3R,4S,6R)-4-(dimethylamino)-3-hydroxy-6-methyltetrahydro-2H-pyran-2-yl)oxy)-8-methoxy-4,6,8,10,12,12-hexamethyl-3-(1-((S)-pyrrolidine-3-carbonyl)azetidin-3-yl)-1-oxa-4-azacyclotridecane-11,13-dione]",> 32 µg/mL,> 32 µg/mL,> 32 µg/mL,> 32 µg/mL,4 to 32 µg/mL,4 to 32 µg/mL,–,–
"CO[C@]1(C)C[C@@H](C)CN(C)[C@H](C2CN(C(=O)[C@@H]3CCNC3)C2)COC(=O)C(C)(C)C(=O)[C@H](C)[C@H]1O[C@@H]1O[C@H](C)C[C@H](N(C)C)[C@H]1O [Compound 22, (3R,6R,8R,9R,10R)-9-(((2S,3R,4S,6R)-4-(dimethylamino)-3-hydroxy-6-methyltetrahydro-2H-pyran-2-yl)oxy)-8-methoxy-4,6,8,10,12,12-hexamethyl-3-(1-((R)-pyrrolidine-3-carbonyl)azetidin-3-yl)-1-oxa-4-azacyclotridecane-11,13-dione]",> 32 µg/mL,> 32 µg/mL,> 32 µg/mL,> 32 µg/mL,4 to 32 µg/mL,4 to 32 µg/mL,–,–
"CO[C@]1(C)C[C@@H](C)CN(C)[C@H](C2CN(C(=O)[C@@H]3CCN(C)C3)C2)COC(=O)C(C)(C)C(=O)[C@H](C)[C@H]1O[C@@H]1O[C@H](C)C[C@H](N(C)C)[C@H]1O [Compound 111, (3R,6R,8R,9R,10R)-9-(((2S,3R,4S,6R)-4-(dimethylamino)-3-hydroxy-6-methyltetrahydro-2H-pyran-2-yl)oxy)-8-methoxy-4,6,8,10,12,12-hexamethyl-3-(1-((R)-1-methylpyrrolidine-3-carbonyl)azetidin-3-yl)-1-oxa-4-azacyclotridecane-11,13-dione]",4 to 32 µg/mL,4 to 32 µg/mL,> 32 µg/mL,> 32 µg/mL,4 to 32 µg/mL,4 to 32 µg/mL,–,–
"CCCN1C[C@H](C)C[C@@](C)(OC)[C@H](O[C@@H]2O[C@H](C)C[C@H](N(C)C)[C@H]2O)[C@@H](C)C(=O)C(C)(C)C(=O)OC[C@H]1[C@H]1C[C@H](N(C)CC(C)C)C1 [Compound 60, (3R,6R,8R,9R,10R)-9-(((2S,3R,4S,6R)-4-(dimethylamino)-3-hydroxy-6-methyltetrahydro-2H-pyran-2-yl)oxy)-3-((1r,3R)-3-(isobutyl(methyl)amino)cyclobutyl)-8-methoxy-6,8,10,12,12-pentamethyl-4-propyl-1-oxa-4-azacyclotridecane-11,13-dione]",4 to 32 µg/mL,4 to 32 µg/mL,> 32 µg/mL,> 32 µg/mL,< 4 µg/mL,4 to 32 µg/mL,–,–
"CCCN1CC([C@@H]2[C@@H](C)OC(=O)C(C)(C)C(=O)[C@H](C)[C@@H](O[C@@H]3O[C@H](C)C[C@H](N(C)C)[C@H]3O)[C@](C)(OC)C[C@@H](C)CN2C)C1 [Compound 136, (2R,3R,6R,8R,9R,10R)-9-(((2S,3R,4S,6R)-4-(dimethylamino)-3-hydroxy-6-methyltetrahydro-2H-pyran-2-yl)oxy)-8-methoxy-2,4,6,8,10,12,12-heptamethyl-3-(1-propylazetidin-3-yl)-1-oxa-4-azacyclotridecane-11,13-dione]",> 32 µg/mL,> 32 µg/mL,> 32 µg/mL,> 32 µg/mL,4 to 32 µg/mL,> 32 µg/mL,–,–

# More lines, main results first:
MIC (K. pneumoniae MP-546),MIC (K. pneumoniae MP-648),MIC (P. aeruginosa MP-3),MIC (A. baumannii MP-15),MIC (E. coli MP-4),MIC (S. aureus MP-12),Structure (SMILES),"ring closure, yield of all isomers ([1]; from CO[C@](C)(C[C@@H](C)CN(C)[C@@H](CO)c1ccc(Br)cc1)[C@H](O[C@@H]1O[C@H](C)C[C@H](N(C)C)[C@H]1OC(=O)c1ccccc1)[C@@H](C)C1=C(C)C(=O)OC(C)(C)O1, 4.0 mM, 165.0 °C, 20.0 h)","ring closure, yield of all isomers ([1]; from CO[C@](C)(C[C@@H](C)CN(C(=O)OCc1ccccc1)[C@@H](CO)C1CCN(C(=O)OC(C)(C)C)CC1)[C@H](O[C@@H]1O[C@H](C)C[C@H](N(C)C)[C@H]1OC(=O)c1ccccc1)[C@@H](C)C1=C(C)C(=O)OC(C)(C)O1, 3.15 mM, 148.0 °C, 23.0 h)"
4 to 32 µg/mL,4 to 32 µg/mL,> 32 µg/mL,> 32 µg/mL,< 4 µg/mL,> 32 µg/mL,"CO[C@]1(C)C[C@@H](C)CN(C)[C@H](C2CN(C(=O)CCCN(C)CC(C)C)C2)COC(=O)C(C)(C)C(=O)[C@H](C)[C@H]1O[C@@H]1O[C@H](C)C[C@H](N(C)C)[C@H]1O [Compound 178, (3R,6R,8R,9R,10R)-9-(((2S,3R,4S,6R)-4-(dimethylamino)-3-hydroxy-6-methyltetrahydro-2H-pyran-2-yl)oxy)-3-(1-(4-(isobutyl(methyl)amino)butanoyl)azetidin-3-yl)-8-methoxy-4,6,8,10,12,12-hexamethyl-1-oxa-4-azacyclotridecane-11,13-dione]",–,–
< 4 µg/mL,< 4 µg/mL,> 32 µg/mL,> 32 µg/mL,4 to 32 µg/mL,4 to 32 µg/mL,"CCN(C)[C@H]1C[C@H]([C@@H]2COC(=O)C(C)(C)C(=O)[C@H](C)[C@@H](O[C@@H]3O[C@H](C)C[C@H](N(C)C)[C@H]3O)[C@](C)(OC)C[C@@H](C)CN2C)C1 [Compound 71, (3R,6R,8R,9R,10R)-9-(((2S,3R,4S,6R)-4-(dimethylamino)-3-hydroxy-6-methyltetrahydro-2H-pyran-2-yl)oxy)-3-((1r,3R)-3-(ethyl(methyl)amino)cyclobutyl)-8-methoxy-4,6,8,10,12,12-hexamethyl-1-oxa-4-azacyclotridecane-11,13-dione]",–,–
< 4 µg/mL,4 to 32 µg/mL,> 32 µg/mL,> 32 µg/mL,< 4 µg/mL,4 to 32 µg/mL,"CO[C@]1(C)C[C@@H](C)CN(C)[C@@H](C2CCN(CC3CCC3)CC2)COC(=O)C(C)(C)C(=O)[C@H](C)[C@H]1O[C@@H]1O[C@H](C)C[C@H](N(C)C)[C@H]1O [Compound 69, (3S,6R,8R,9R,10R)-3-(1-(cyclobutylmethyl)piperidin-4-yl)-9-(((2S,3R,4S,6R)-4-(dimethylamino)-3-hydroxy-6-methyltetrahydro-2H-pyran-2-yl)oxy)-8-methoxy-4,6,8,10,12,12-hexamethyl-1-oxa-4-azacyclotridecane-11,13-dione]",–,–
< 4 µg/mL,4 to 32 µg/mL,> 32 µg/mL,> 32 µg/mL,< 4 µg/mL,4 to 32 µg/mL,"CO[C@]1(C)C[C@@H](C)CN(C)[C@H](C2CN(CC3CC3)C2)COC(=O)C(C)(C)C(=O)[C@H](C)[C@H]1O[C@@H]1O[C@H](C)C[C@H](N(C)C)[C@H]1O [Compound 37, (3R,6R,8R,9R,10R)-3-(1-(cyclopropylmethyl)azetidin-3-yl)-9-(((2S,3R,4S,6R)-4-(dimethylamino)-3-hydroxy-6-methyltetrahydro-2H-pyran-2-yl)oxy)-8-methoxy-4,6,8,10,12,12-hexamethyl-1-oxa-4-azacyclotridecane-11,13-dione]",–,–
